27 molecules from US11739100B2, “2,3-dihydro-1h-imidazo{1,2-a}pyrimidin-5-one and this 1,2,3,4-tetrahydropyrimido{1,2-a}pyrimidin-6-one derivatives comprising a substituted morpholine, preparation thereof and pharmaceutical use thereof” (SANOFI, priority 2012, dated 2023) can be followed below.

This experiment has as its target T1, recombinant Vps34 (Homo sapiens, UniProt Q8NEB9).
T1 construct: purchased Invitrogen PV5126
The experiment is described as follows: Phosphorylation of phosphatidylinositol (PI) by Vps34 in vitro, ADP detected by TR-FRET (HTRF Transcreener ADP). Type of experiment: biochemical. The note with it: 10 μM ATP, 55 μg/ml PI, approximately 3 nM Vps34, 1 hour at ambient temperature; absolute IC50, mean of two independent experiments; read-out: IC50 activity range.

T1 sequence (Q8NEB9 whole entry): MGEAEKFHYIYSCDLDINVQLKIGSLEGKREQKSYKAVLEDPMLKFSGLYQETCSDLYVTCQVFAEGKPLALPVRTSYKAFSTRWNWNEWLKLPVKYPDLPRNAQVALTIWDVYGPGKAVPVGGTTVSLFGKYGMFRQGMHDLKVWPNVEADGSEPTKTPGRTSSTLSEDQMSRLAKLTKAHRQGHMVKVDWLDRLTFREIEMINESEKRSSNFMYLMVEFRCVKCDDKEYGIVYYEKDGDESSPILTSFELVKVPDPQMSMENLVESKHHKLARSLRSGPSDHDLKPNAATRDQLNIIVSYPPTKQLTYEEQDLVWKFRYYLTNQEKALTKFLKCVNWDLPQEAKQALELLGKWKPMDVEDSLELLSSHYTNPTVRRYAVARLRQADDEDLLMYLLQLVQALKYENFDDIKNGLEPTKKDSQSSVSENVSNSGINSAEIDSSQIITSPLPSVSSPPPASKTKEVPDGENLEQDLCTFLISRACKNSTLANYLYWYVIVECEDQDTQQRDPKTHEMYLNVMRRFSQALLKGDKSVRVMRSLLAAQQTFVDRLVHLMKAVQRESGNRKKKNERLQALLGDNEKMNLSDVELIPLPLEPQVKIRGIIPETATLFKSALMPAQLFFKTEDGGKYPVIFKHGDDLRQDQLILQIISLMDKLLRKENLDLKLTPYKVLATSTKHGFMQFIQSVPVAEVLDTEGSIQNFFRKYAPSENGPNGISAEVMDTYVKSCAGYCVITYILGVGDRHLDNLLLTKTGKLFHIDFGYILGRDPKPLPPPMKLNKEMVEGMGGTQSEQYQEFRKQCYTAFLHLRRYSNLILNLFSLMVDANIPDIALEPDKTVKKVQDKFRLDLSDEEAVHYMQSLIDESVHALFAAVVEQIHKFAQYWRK

As usually defined, the IC50 is the concentration that inhibits the measured activity by half. On to `C[C@@H]1COCCN1c1nc2n(c(=O)c1F)[C@@H](C(F)(F)F)CCN2CC(=O)C1CCOCC1` [Example 132, (R)-3-Fluoro-2-((R)-3-methylmorpholin-4-yl)-9-[2-oxo-2-(tetrahydro-pyran-4-yl)ethyl]-6-trifluoromethyl-6,7,8,9-tetrahydro-pyrimido[1,2-a]-pyrimidin-4-one], for which the IC50 is below 10 nM.

With `C[C@@H]1COCCN1c1cc(=O)n2c(n1)N(CC1COC1)[C@H](C(F)(F)F)CC2` [Example 133, (S)-2-((R)-3-Methyl-morpholin-4-yl)-9-oxetan-3-ylmethyl-8-trifluoromethyl-6,7,8,9-tetrahydro-pyrimido[1,2-a]-pyrimidin-4-one], the half-maximal inhibitory concentration (IC50) was below 10 nM.

As to `C[C@@H]1COCCN1c1cc(=O)n2c(n1)N(c1ccc(C(F)F)nc1)C(C(F)(F)F)CC2` (stereo partly drawn) [Example 134, 9-(6-Difluoromethyl-pyridin-3-yl)-2-((R)-3-methylmorpholin-4-yl)-8-trifluoromethyl-6,7,8,9-tetrahydro-pyrimido[1,2-a]-pyrimidin-4-one], the IC50 was below 10 nM.

`C[C@@H]1COCCN1c1nc2n(c(=O)c1F)[C@@H](C(F)(F)F)CCN2CC(=O)c1ccccn1` [Example 135, (R)-3-Fluoro-2-((R)-3-methylmorpholin-4-yl)-9-(2-oxo-2-pyridin-2-ylethyl)-6-trifluoromethyl-6,7,8,9-tetrahydro-pyrimido[1,2-a]-pyrimidin-4-one]: the IC50 is below 10 nM.

For `C[C@@H]1COCCN1c1cc(=O)n2c(n1)N(Cc1nnc(C(F)(F)F)o1)[C@H](C(F)(F)F)CC2` [Example 140, (S)-2-((R)-3-Methyl-morpholin-4-yl)-8-trifluoromethyl-9-(5-trifluoromethyl-[1,3,4]oxadiazol-2-yl-methyl)-6,7,8,9-tetrahydro-pyrimido[1,2-a]-pyrimidin-4-one], the half-maximal inhibitory concentration (IC50) was below 10 nM.

For the molecule `C[C@@H]1COCCN1c1cc(=O)n2c(n1)N(CC(=O)c1cccnc1)CC[C@@H]2C(F)(F)F` [Example 141, (R)-2-((R)-3-Methyl-morpholin-4-yl)-9-(2-oxo-2-pyridin-3-yl-ethyl)-6-trifluoromethyl-6,7,8,9-tetrahydro-pyrimido[1,2-a]-pyrimidin-4-one], the half-maximal inhibitory concentration (IC50) was below 10 nM.

Take `C[C@@H]1COCCN1c1cc(=O)n2c(n1)N(Cc1nnc(C3CC3)o1)[C@H](C(F)(F)F)CC2` [Example 142, (S)-9-(5-Cyclopropyl-[1,3,4]oxadiazol-2-yl-methyl)-2-((R)-3-methylmorpholin-4-yl)-8-trifluoromethyl-6,7,8,9-tetrahydro-pyrimido[1,2-a]-pyrimidin-4-one]: the half-inhibitory concentration (IC50) was below 10 nM.

For `Cc1nocc1CN1CC[C@H](C(F)(F)F)n2c1nc(N1CCOC[C@H]1C)cc2=O` [Example 143, (R)-9-(3-Methyl-isoxazol-4-ylmethyl)-2-((R)-3-methyl-morpholin-4-yl)-6-trifluoromethyl-6,7,8,9-tetrahydro-pyrimido[1,2-a]-pyrimidin-4-one], the concentration for half-maximal inhibition (IC50) was below 10 nM.

On to `C[C@@H]1COCCN1c1cc(=O)n2c(n1)N(Cc1nc(C(F)(F)F)no1)CC[C@@H]2C(F)(F)F` [Example 144, (R)-2-((R)-3-Methyl-morpholin-4-yl)-6-trifluoromethyl-9-(3-trifluoromethyl-[1,2,4]oxadiazol-5-yl-methyl)-6,7,8,9-tetrahydro-pyrimido[1,2-a]-pyrimidin-4-one], for which the IC50 is below 10 nM.

With `CC(=O)CN1CC[C@H](C(F)(F)F)n2c1nc(N1CCOC[C@H]1C)cc2=O` [Example 145, (R)-2-((R)-3-Methyl-morpholin-4-yl)-9-(2-oxopropyl)-6-trifluoromethyl-6,7,8,9-tetrahydro-pyrimido[1,2-a]-pyrimidin-4-one], the IC50 is 10 to 100 nM.

Consider `Cc1nocc1CN1CC[C@H](C(F)(F)F)n2c1nc(N1CCOC[C@H]1C)c(F)c2=O` [Example 146, (R)-3-Fluoro-9-(3-methylisoxazol-4-yl-methyl)-2-((R)-3-methylmorpholin-4-yl)-6-trifluoromethyl-6,7,8,9-tetrahydro-pyrimido[1,2-a]-pyrimidin-4-one], for which the IC50 is below 10 nM.

On to `C[C@@H]1COCCN1c1nc2n(c(=O)c1F)[C@@H](C(F)(F)F)CCN2Cc1nc(C2CC2)no1` [Example 147, (R)-9-(3-Cyclopropyl-[1,2,4]oxadiazol-5-yl-methyl)-3-fluoro-2-((R)-3-methyl-morpholin-4-yl)-6-trifluoromethyl-6,7,8,9-tetrahydro-pyrimido[1,2-a]-pyrimidin-4-one], for which the half-maximal inhibitory concentration (IC50) was below 10 nM.

Consider `CC(=O)CN1CC[C@H](C(F)(F)F)n2c1nc(N1CCOC[C@H]1C)c(F)c2=O` [Example 148, (R)-3-Fluoro-2-((R)-3-methylmorpholin-4-yl)-9-(2-oxopropyl)-6-trifluoromethyl-6,7,8,9-tetrahydro-pyrimido[1,2-a]-pyrimidin-4-one], for which the IC50 was 10 to 100 nM.

As to `Cc1noc(CN2CC[C@H](C(F)(F)F)n3c2nc(N2CCOC[C@H]2C)c(F)c3=O)n1` [Example 149, (R)-3-Fluoro-2-((R)-3-methylmorpholin-4-yl)-9-(3-methyl-[1,2,4]oxadiazol-5-yl-methyl)-6-trifluoromethyl-6,7,8,9-tetrahydro-pyrimido[1,2-a]-pyrimidin-4-one], the IC50 is below 10 nM.

Consider `CC1(C)COCCN1c1cc(=O)n2c(n1)N(CC(=O)c1ccccc1)[C@H](C(F)(F)F)CC2` [Example 150, (S)-2-(3,3-Dimethyl-morpholin-4-yl)-9-(2-oxo-2-phenylethyl)-8-trifluoromethyl-6,7,8,9-tetrahydro-pyrimido[1,2-a]-pyrimidin-4-one], for which the IC50 was in the range of 10 to 100 nM.

Turning to `C[C@@H]1COC[C@H](C)N1c1cc(=O)n2c(n1)N(Cc1ccc(Cl)s1)[C@H](C(F)(F)F)CC2` [Example 151, (S)-9-(5-Chloro-thiophen-2-ylmethyl)-2-((3S,5R)-3,5-dimethylmorpholin-4-yl)-8-trifluoromethyl-6,7,8,9-tetrahydro-pyrimido[1,2-a]-pyrimidin-4-one], the IC50 is 10 to 100 nM.

`C[C@@H]1COC[C@@H](C)N1c1cc(=O)n2c(n1)N(Cc1ccnn1C(F)F)[C@H](C(F)(F)F)CC2` [Example 154, (S)-9-(2-Difluoromethyl-2H-pyrazol-3-ylmethyl)-2-((3R,5R)-3,5-dimethyl-morpholin-4-yl)-8-trifluoromethyl-6,7,8,9-tetrahydro-pyrimido[1,2-a]-pyrimidin-4-one]: the 50% inhibitory concentration (IC50) is below 10 nM.

Take `Cc1cc(CN2c3nc(N4[C@H](C)COC[C@H]4C)cc(=O)n3CC[C@H]2C(F)(F)F)on1` [Example 155, (S)-2-((3R,5R)-3,5-Dimethylmorpholin-4-yl)-9-(3-methyl-isoxazol-5-ylmethyl)-8-trifluoromethyl-6,7,8,9-tetrahydro-pyrimido[1,2-a]-pyrimidin-4-one]: the concentration for half-maximal inhibition (IC50) is below 10 nM.

Consider `C[C@@H]1COC[C@@H](C)N1c1cc(=O)n2c(n1)N(Cc1ccc(Cl)nc1)[C@H](C(F)(F)F)CC2` [Example 156, (S)-9-(6-Chloro-pyridin-3-ylmethyl)-2-((3R,5R)-3,5-dimethyl-morpholin-4-yl)-8-trifluoromethyl-6,7,8,9-tetrahydro-pyrimido[1,2-a]-pyrimidin-4-one], for which the IC50 was in the range of 10 to 100 nM.

For the molecule `C[C@@H]1COC[C@@H](C)N1c1cc(=O)n2c(n1)N(Cc1ccnc(Cl)c1)[C@H](C(F)(F)F)CC2` [Example 157, (S)-9-(2-Chloro-pyridin-4-ylmethyl)-2-((3R,5R)-3,5-dimethyl-morpholin-4-yl)-8-trifluoromethyl-6,7,8,9-tetrahydro-pyrimido[1,2-a]-pyrimidin-4-one], the half-maximal inhibitory concentration (IC50) is below 10 nM.

Regarding `C[C@@H]1COC[C@@H](C)N1c1cc(=O)n2c(n1)N(Cc1ncco1)[C@H](C(F)(F)F)CC2` [Example 158, (S)-2-((3R,5R)-3,5-Dimethylmorpholin-4-yl)-9-oxazol-2-yl-methyl-8-trifluoromethyl-6,7,8,9-tetrahydro-pyrimido[1,2-a]-pyrimidin-4-one], the concentration for half-maximal inhibition (IC50) is below 10 nM.

`C[C@@H]1COC[C@@H](C)N1c1cc(=O)n2c(n1)N(c1ccnc(Cl)c1)[C@H](C(F)(F)F)CC2` [Example 159, (S)-9-(2-Chloro-pyridin-4-yl)-2-((3R,5R)-3,5-dimethyl-morpholin-4-yl)-8-trifluoromethyl-6,7,8,9-tetrahydro-pyrimido[1,2-a]-pyrimidin-4-one]: the IC50 was below 10 nM.

Turning to `C[C@@H]1COC[C@@H](C)N1c1cc(=O)n2c(n1)N(c1cccnc1)[C@H](C(F)(F)F)CC2` [Example 160, (S)-2-((3R,5R)-3,5-Dimethylmorpholin-4-yl)-9-pyridin-3-yl-8-trifluoromethyl-6,7,8,9-tetrahydro-pyrimido[1,2-a]-pyrimidin-4-one], the half-inhibitory concentration (IC50) was below 10 nM.

Regarding `O=c1cc(N2CC3CCC(C2)O3)nc2n1CC[C@@H](C(F)(F)F)N2c1cc(F)cc(F)c1` [Example 161, (S)-9-(3,5-Difluoro-phenyl)-2-(8-oxa-3-azabicyclo[3.2.1]oct-3-yl)-8-trifluoromethyl-6,7,8,9-tetrahydro-pyrimido[1,2-a]-pyrimidin-4-one], the concentration for half-maximal inhibition (IC50) lay in the range of 10 to 100 nM.

For `O=c1cc(N2CC3CCC(C2)O3)nc2n1CC[C@@H](C(F)(F)F)N2Cc1ccc(Cl)s1` [Example 162, (S)-9-(5-Chloro-thiophen-2-ylmethyl)-2-(8-oxa-3-aza-bicyclo[3.2.1]oct-3-yl)-8-trifluoromethyl-6,7,8,9-tetrahydro-pyrimido[1,2-a]-pyrimidin-4-one], the IC50 is 10 to 100 nM.

On to `O=C(CN1c2nc(N3CC4CCC(C3)O4)cc(=O)n2CC[C@H]1C(F)(F)F)c1ccccc1` [Example 163, (S)-2-(8-Oxa-3-aza-bicyclo[3.2.1]oct-3-yl)-9-(2-oxo-2-phenyl-ethyl)-8-trifluoromethyl-6,7,8,9-tetrahydro-pyrimido[1,2-a]-pyrimidin-4-one], for which the IC50 is below 10 nM.

Regarding `O=c1cc(N2CC3CCC(C2)O3)nc2n1CC[C@@H](C(F)(F)F)N2Cc1ccno1` [Example 164, (S)-9-Isoxazol-5-yl-methyl-2-(8-oxa-3-azabicyclo[3.2.1]oct-3-yl)-8-trifluoromethyl-6,7,8,9-tetrahydro-pyrimido[1,2-a]-pyrimidin-4-one], the IC50 fell in the range of 10 to 100 nM.
